Numbered stars: 1 amine (or outer) side, 2 acyl side, 3 side chain; on linkers, the order of the positions; unused ones are H or OH. Bridge positions count the residues as written; N and C are the ends. Square brackets hold non-standard residues; d marks the D form. Side chains are listed from the residue outwards. Ends that are not written are not given here. Peptide text beside a SMILES is read from it. * marks the point of attachment. C18 diacid = O=C(O)CCCCCCCCCCCCCCCCC(=O)*; γGlu = O=C(O)[C@H](CCC(=O)[*:2])N[*:1]; AEEA = NCCOCCOCC(=O)O; Aib = CC(C)(N)C(=O)O
Experiments:
[1] = tested on: serum albumin from humans (HSA); type: binding, man (Homo sapiens)
Description: FIG. 14: Competitive ligand binding assay using radio labelled salmon calcitonin (^125I-sCT) as tracer and conducted 2% serum albumin from two different species, rat (Rattus norvegicus) and man (Homo sapiens). As a tracer 0.25 nM ^125I-sCT was used. A) Competitive binding assay conducted in 2% RSA. B) Competitive binding assay conducted in 2% HSA. Data as +/−SEM. To investigate whether the improved efficacy in the acute setting of acylation 4 and 5 could be translated to man, a competitive ligand binding assay was conducted to explore acylation binding to serum albumin in rodent and man.

male ZDF rats = experiment: Chronic study in male ZDF rats (food intake, body weight, FBG, HbA1c, OGTT); type: in vivo, rat; conditions: 62-day study
Description: A chronic study was performed in male ZDF rats. (obese homozygous recessive (fa/fa) strain: 370) (Charles River, USA). Rats were delivered 5 weeks of age. The rats were housed 2-3 per cage.
Rats were delivered to the animal facility of Nordic Bioscience at five weeks of age (DAY −6). Rats were acclimatized for three days. HbA1c and BW was registered (DAY −3). Rats were randomized based on HbA1c (primarily) and BW (secondly) at […]. The study was initiated at DAY 1.
Animals were dosed once daily with KBP-066 or saline (vehicle). Dosing with KBP-066A11.03 was performed once every third day. Dosing was administered subcutaneously (SC) around noon.
Saline: Dosage volume was 1 mL/kg. […]
DAY −3: HbA1c measurement DAY 1: (first day of study), rats were fasted for 6 h and a BG and blood sample was taken. […] Hb1Ac is measured during the OGTT at t=120 or t=180. […]
Food intake was monitored daily. Body weight was monitored daily for first three weeks, then twice weekly after week three.
Fasting blood glucose was monitored every two weeks using Accu-Check® Avia monitoring system (Roche Diagnostics, Rotkreuz, Switzerland): Measurement was taken from the tail vein (25 G needle).
Rats were non-fasted for the first (randomization) and second (after the second OGTT) HbA1c measurement. A single drop of blood was applied to the HbA1c cassette and the HbA1c was measured using a DCA Vantage Analyzer. […]

[2] = target: T1, Calcitonin Receptor (CTR) (Homo sapiens (Human), UniProt P30988); experiment: cell-based or functional assay
T1 sequence: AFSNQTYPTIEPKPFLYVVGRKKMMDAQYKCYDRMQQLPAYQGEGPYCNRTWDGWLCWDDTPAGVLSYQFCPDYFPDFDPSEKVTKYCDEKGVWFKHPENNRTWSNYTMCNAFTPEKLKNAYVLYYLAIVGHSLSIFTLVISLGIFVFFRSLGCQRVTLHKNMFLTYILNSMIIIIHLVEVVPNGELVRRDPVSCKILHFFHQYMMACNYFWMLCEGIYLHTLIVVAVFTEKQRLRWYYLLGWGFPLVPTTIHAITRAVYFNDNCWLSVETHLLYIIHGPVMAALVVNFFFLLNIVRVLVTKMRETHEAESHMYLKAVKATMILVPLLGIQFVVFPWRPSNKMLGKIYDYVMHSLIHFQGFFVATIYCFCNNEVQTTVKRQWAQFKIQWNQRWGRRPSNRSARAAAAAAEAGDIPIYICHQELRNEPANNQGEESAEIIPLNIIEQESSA

Amylin Receptor (AMY-R) = target: T2, Amylin Receptor (AMY-R) (Homo sapiens (Human), UniProt P30988); experiment: cell-based or functional assay
T2 sequence 1: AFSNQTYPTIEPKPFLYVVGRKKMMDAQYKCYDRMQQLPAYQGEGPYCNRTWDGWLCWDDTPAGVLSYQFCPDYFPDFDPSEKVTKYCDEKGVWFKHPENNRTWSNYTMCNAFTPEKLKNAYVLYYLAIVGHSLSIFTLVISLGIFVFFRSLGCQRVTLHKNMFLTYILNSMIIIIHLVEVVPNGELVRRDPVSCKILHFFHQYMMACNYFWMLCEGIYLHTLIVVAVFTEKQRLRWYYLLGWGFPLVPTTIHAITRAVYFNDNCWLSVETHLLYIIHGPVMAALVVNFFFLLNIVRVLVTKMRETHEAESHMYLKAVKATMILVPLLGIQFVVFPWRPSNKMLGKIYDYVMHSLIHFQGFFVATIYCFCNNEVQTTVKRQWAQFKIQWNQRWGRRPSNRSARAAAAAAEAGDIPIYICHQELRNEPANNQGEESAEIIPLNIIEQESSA
T2 sequence 2: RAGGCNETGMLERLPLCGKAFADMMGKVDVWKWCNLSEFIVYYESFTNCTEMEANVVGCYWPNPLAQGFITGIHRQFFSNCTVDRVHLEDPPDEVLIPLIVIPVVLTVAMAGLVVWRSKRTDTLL

CC(=O)N[C@H]1CSSC[C@@H](C(=O)NC(C)(C)C(=O)N[C@@H](CC(C)C)C(=O)NCC(=O)N[C@@H](CCCCNC(=O)COCCOCCNC(=O)COCCOCCNC(=O)CC[C@H](NC(=O)CCCCCCCCCCCCCCCCC(=O)O)C(=O)O)C(=O)N[C@@H](CC(C)C)C(=O)N[C@@H](CO)C(=O)N[C@@H](CCC(N)=O)C(=O)N[C@@H](CC(=O)O)C(=O)N[C@@H](CC(C)C)C(=O)N[C@@H](Cc2c[nH]cn2)C(=O)N[C@@H](CCCNC(=N)N)C(=O)N[C@@H](CC(C)C)C(=O)N[C@@H](CCC(N)=O)C(=O)N[C@H](C(=O)N[C@@H](Cc2ccc(O)cc2)C(=O)N2CCC[C@H]2C(=O)N[C@@H](CCCCN)C(=O)N[C@H](C(=O)N[C@@H](CC(=O)O)C(=O)N[C@H](C(=O)NCC(=O)N[C@@H](C)C(=O)N[C@@H](CC(N)=O)C(=O)N[C@@H](C)C(=O)N2CCC[C@H]2C(N)=O)C(C)C)[C@@H](C)O)[C@@H](C)O)NC(=O)[C@H]([C@@H](C)O)NC(=O)[C@H](CO)NC(=O)[C@H](CC(C)C)NC(=O)[C@H](CC(N)=O)NC(=O)[C@H](CO)NC1=O [KBP-356] (Ac-CSNLSTC[Aib]LGK([AEEA-AEEA-γGlu-C18 diacid])LSQDLHRLQTYPKTDVGANAP-NH2; disulfide 1-7 (inferred))
EC50 in competitive binding (in words) [1]: no differences in EC50

CSNLSTC(AiB)LGRLSQDLHRLQTYPKTDVGANAP [KBP-066]
fasting blood glucose (in words) (male ZDF rats): reduced FBG in a dose dependent manner

Ac-CSNLSTCMLGRLSQELHRLQTYPKTDVGANAPK (not fully specified (residue 33); ends and bridges not checked) [KBP-318]
β-arrestin Fold Recruitment EC50 values (10^-9 M) [2]: 197 nM | β-arrestin Fold Recruitment EC50 values (10^-9 M) (Amylin Receptor (AMY-R)): 301 nM

— US20220380432A1, “Acylated Calcitonin Mimetics” (KeyBioscience AG, priority 2018, published 2022)
